Patent publication US20040254123A1, “Malignant cell differentiation inducer compositions and utilization of the same” (priority 2001, published 2004)

What was measured:
rat glioma C6 cells [1] = assay: Morphological change of C6 cells (phase-contrast microscope); type: cell-based; settings: 125 μg/ml SBA, 3 days
[2] = tested on: patient having a cancer or tumor; settings: intravenous 1.5 to 6 g per day per adult; cited from earlier work
[3] = tested on: patients having a cancer or tumor; assay: Clinical trial, intravenous SBA in patients having a cancer or tumor; type: in vivo, human
Source text: SBA can be administered, not only intravenously, but also into an abdominal cavity or subcutaneously, or orally.

rat glioma C6 cells [4] = assay: Number of surviving C6 cells after SBA treatment (trypan blue); type: cell-based; settings: 3 days treatment
Experimental: Rat glioma C6 cells obtained from Japanese Cancer Research Resource Bank (JCRB) were inoculated on a medium in an amount of 1×10^5 cells/schale, cultured for 24 hours. […] Then, the cells were dyed with 0.2% trypan blue, then, the number of surviving cells was counted. The counted value of cell number represents average value±standard error (SE) of three continuous tests [*P<0.00301 and *P<0.00001 (in comparison with contrast)]. The counted value is shown as a bar graph in FIG. 3. This test was conducted in the absence of SBA, as a control test.

[5] = tested on: human neuroblastoma IMR-32 cells; assay: Pseudo-ganglion formation / differentiation of IMR-32 cells (phase-contrast microscope); type: cell-based
Source text: As [^3H] acetyl-coenzyme A (acetyl-CoA), a product manufactured by Amersham was used, and as propidium iodide, acridine orange and choline chloride, products manufactured by Sigma were used. As fetal bovine serum (hereinafter, abbreviated as FCS), a product manufactured by Cansera International was used.
Morphological change of the cells, and the number of pseudo-ganglia formed were observed under a phase-contrast microscope (magnification: 200).

In the case of `O=C1O[C@H]([C@@H]2COC(c3ccccc3)O2)C(O)=C1O` (stereo partly drawn) [SBA, mono-sodium 5,6-O-benzylidene-L-ascorbate], the “morphological change of C6 cells” value (rat glioma C6 cells [1]) is listed as “Formation of astrocytes was recognized”, the “total dimension of the carcinoma or tumor” value [2] is listed as “decreases” and the “effect on cancer in patient with attendant rheumatoid arthritis” value ([3]; 3 mg/body once per day) is listed as “the cancer reduces”. The “differentiation of cancer or tumor cells in patients” value ([3]; intravenous 1 mg/body to 10 mg/body once per day per adult, 35 examples) was “induce differentiation of cancer cells or tumor cells into normal cells efficiently”, the “differentiation of malignant cells forming new blood vessel” value ([3]; patient with augmented new blood vessel in eye and eyeground hemorrhage, intravenous 1 to 10 mg/body once per day) was “induces differentiation of malignant cells forming new blood vessel into normal cells” and the “CD50 (proliferation of C6 cells)” value (rat glioma C6 cells [4]) was 250 µg/mL. The “survived cells induced to differentiate into neurocytes having neuritis” value ([5]; 500 μg/ml SBA) was 20 to 30% and the “morphological change / formation of pseudo-ganglia” value ([5]; SBA treatment 48 hours) was “IMR-32 cells form pseudo-ganglia”.
